Test results as given in ChEMBL document CHEMBL1201862, “PubChem BioAssay data set” (2004).
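1) Cells in 96-well plates. 2) Compound, 48 h, 5 concentrations. 3) Linear interpolation between surrounding doses. 4) Unreached endpoint = highest concentration. GI50: concentration for 50% inhibition of growth.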 Calls of active or inactive are those of the source. Cut-off read from the data, not from the text of the source: active = GI50 up to about 1.1 µM and inactive = higher.

Assays:
Experiment in all cases: DTP human tumour cell line panel, 48 h
[1] = test system: SF-295
[2] = test system: UACC-257
[3] = test system: HOP-92
[4] = test system: LOX IMVI
[5] = test system: K562
[6] = test system: NCI-H23
[7] = test system: M14
[8] = test system: A549
[9] = test system: IGROV-1
[10] = test system: OVCAR-3
[11] = test system: HL-60
[12] = test system: EKVX
[13] = test system: SK-OV-3
[14] = test system: SF-268
[15] = test system: U-251
[16] = test system: RPMI-8226
[17] = test system: OVCAR-4
[18] = test system: A498
[19] = test system: NCI-H226
[20] = test system: CAKI-1

O=C(O)c1cc(-c2ccc3cc4c(cc3c2)OCO4)nc2ccccc12
GI50 [1]: 23.8 µM (inactive)
GI50 [2]: 5.41 µM (inactive)
GI50 [3]: 20.1 µM (inactive)
GI50 [4]: 29.3 µM (inactive)
GI50 [5]: 32.5 µM (inactive)
GI50 [6]: 43.8 µM (inactive)
GI50 [7]: 28 µM (inactive)
GI50 [8]: 21.1 µM (inactive)
GI50 [9]: 29 µM (inactive)
GI50 [10]: 41.6 µM (inactive)
GI50 [11]: 16.5 µM (inactive)
GI50 [12]: 14.4 µM (inactive)
GI50 [13]: 44.7 µM (inactive)
GI50 [14]: 28.6 µM (inactive)
GI50 [15]: 19.7 µM (inactive)
GI50 [16]: 45.9 µM (inactive)
GI50 [17]: > 100 µM (inactive)
GI50 [18]: 23.9 µM (inactive)
GI50 [19]: 42.4 µM (inactive)

CCC1(OC(=O)CN)C(=O)OCc2c1cc1n(c2=O)Cc2cc3ccccc3nc2-1 (configuration not stated)
GI50 [1]: 0.01 µM (active)
GI50 [2]: 0.0353 µM (active)
GI50 [3]: 0.547 µM (active)
GI50 [4]: < 0.0102 µM (active)
GI50 [5]: 0.0334 µM (active)
GI50 [6]: 0.01 µM (active)
GI50 [7]: 0.01 µM (active)
GI50 [8]: 0.011 µM (active)
GI50 [9]: 0.0411 µM (active)
GI50 [20]: 0.01 µM (active)
GI50 [10]: 0.0944 µM (active)
GI50 [11]: 0.00764 µM (active)
GI50 [12]: 0.598 µM (active)
GI50 [13]: 0.0297 µM (active)
GI50 [14]: 0.01 µM (active)
GI50 [15]: 0.01 µM (active)
GI50 [16]: < 0.0132 µM (active)
GI50 [17]: 0.12 µM (active)
GI50 [18]: 0.0512 µM (active)
GI50 [19]: 0.0134 µM (active)

CCN1CCC(O)(/C=C/c2ccc(C)cc2)C(C(=O)/C=C/c2ccc(C)cc2)C1 (configuration not stated)
GI50 [1]: 10.6 µM (inactive)
GI50 [2]: 12.5 µM (inactive)
GI50 [3]: 6.81 µM (inactive)
GI50 [4]: 1.31 µM (inactive)
GI50 [5]: 2.36 µM (inactive)
GI50 [6]: 6.35 µM (inactive)
GI50 [7]: 2.83 µM (inactive)
GI50 [8]: 8.24 µM (inactive)
GI50 [9]: 6.55 µM (inactive)
GI50 [20]: 2.78 µM (inactive)
GI50 [10]: 6.32 µM (inactive)
GI50 [11]: 1.79 µM (inactive)
GI50 [12]: 13.2 µM (inactive)
GI50 [13]: 15.6 µM (inactive)
GI50 [14]: 9.57 µM (inactive)
GI50 [15]: 3.12 µM (inactive)
GI50 [16]: 2.77 µM (inactive)
GI50 [17]: 9.82 µM (inactive)
GI50 [18]: 10.3 µM (inactive)
GI50 [19]: 15.5 µM (inactive)

COc1ccc(C2N(NC(=O)c3ccncc3)C(=O)CS2(=O)=O)cc1F (configuration not stated)
GI50 [1]: > 100 µM (inactive)
GI50 [2]: > 100 µM (inactive)
GI50 [3]: > 100 µM (inactive)
GI50 [4]: 60.4 µM (inactive)
GI50 [6]: > 100 µM (inactive)
GI50 [7]: > 100 µM (inactive)
GI50 [8]: > 100 µM (inactive)
GI50 [20]: > 100 µM (inactive)
GI50 [11]: > 100 µM (inactive)
GI50 [13]: > 100 µM (inactive)
GI50 [14]: > 100 µM (inactive)
GI50 [15]: > 100 µM (inactive)
GI50 [16]: > 100 µM (inactive)
GI50 [17]: > 100 µM (inactive)
GI50 [18]: > 100 µM (inactive)
GI50 [19]: > 100 µM (inactive)

O=c1ccc2cc3ccc4cccc5ccc(c2o1)c3c45
GI50 [1]: 33 µM (inactive)
GI50 [3]: 5.24 µM (inactive)
GI50 [4]: 12.1 µM (inactive)
GI50 [5]: > 100 µM (inactive)
GI50 [6]: 67.8 µM (inactive)
GI50 [7]: > 100 µM (inactive)
GI50 [9]: > 100 µM (inactive)
GI50 [20]: > 100 µM (inactive)
GI50 [10]: > 10 µM (inactive)
GI50 [11]: > 100 µM (inactive)
GI50 [12]: > 100 µM (inactive)
GI50 [13]: 13.6 µM (inactive)
GI50 [14]: 28.8 µM (inactive)
GI50 [15]: 13.1 µM (inactive)
GI50 [16]: > 100 µM (inactive)
GI50 [18]: 16 µM (inactive)
GI50 [19]: 19.7 µM (inactive)

Cc1ccc(NC(=S)NNC(=O)c2cc(-c3ccccc3)nc3ccccc23)cc1C
GI50 [1]: 12.9 µM (inactive)
GI50 [2]: 26.4 µM (inactive)
GI50 [3]: 18.6 µM (inactive)
GI50 [5]: 33 µM (inactive)
GI50 [6]: 19.3 µM (inactive)
GI50 [7]: 15.5 µM (inactive)
GI50 [8]: 20.5 µM (inactive)
GI50 [9]: 20 µM (inactive)
GI50 [20]: 59.7 µM (inactive)
GI50 [13]: 16.6 µM (inactive)
GI50 [14]: 29.4 µM (inactive)
GI50 [15]: 19.5 µM (inactive)
GI50 [16]: 24.3 µM (inactive)
GI50 [17]: 18.1 µM (inactive)
GI50 [18]: 16.6 µM (inactive)
GI50 [19]: 34.8 µM (inactive)

O=C(NC1C/C(=N/O)c2c(Br)sc(Br)c21)C(F)(F)F (configuration not stated)
GI50 [1]: 31 µM (inactive)
GI50 [2]: 22.9 µM (inactive)
GI50 [3]: 3.65 µM (inactive)
GI50 [4]: 25.5 µM (inactive)
GI50 [5]: 20 µM (inactive)
GI50 [6]: 16 µM (inactive)
GI50 [7]: 36.2 µM (inactive)
GI50 [8]: 20 µM (inactive)
GI50 [9]: 94 µM (inactive)
GI50 [20]: 13.8 µM (inactive)
GI50 [10]: 35.8 µM (inactive)
GI50 [11]: 32.4 µM (inactive)
GI50 [12]: 27 µM (inactive)
GI50 [13]: 47.6 µM (inactive)
GI50 [14]: 23.6 µM (inactive)
GI50 [15]: 16.7 µM (inactive)
GI50 [17]: 13.8 µM (inactive)
GI50 [18]: 24.5 µM (inactive)
GI50 [19]: 18.4 µM (inactive)
